Data set [1] has as its system Mycobacterium abscessus ATCC 19977. Particulars: in vitro; cited from earlier work.
For data set [2] the following is noted: after 4 h of incubation, Medicines for Malaria Venture data; cited from earlier work.
The conditions of data set [3]: cited from earlier work.
For data set [4] the following is noted: cited from earlier work. The source holds these as a separate data set.
For data set [5] the following is noted: male Sprague Dawley rats; cited from earlier work.
Data set [6] concerns human kidney epithelia cells HEK293. Kind of data set: Single concentration cytotoxicity against HEK293. The conditions noted are these: HEK293, 50 μM, 24 h, relative to DMSO-treated cells.
Data set [7] is described as follows: In vitro microsomal stability, human microsomal suspension.
A short description of data set [8]: In vitro microsomal stability, murine microsomal suspension.
The subject of data set [9] is Mycobacterium tuberculosis H37Rv. The conditions noted are these: in vitro; cited from earlier work.
The nature of data set [10]: Single concentration cytotoxicity against HEK293. Particulars: human.
Setting [11] is: 2 μM substrate, 0.42 mg/mL microsomal proteins, 100 mM phosphate buffer pH 7.4.
[12] abbreviates: after 7 min, 2 μM substrate, 0.42 mg/mL microsomal proteins, pH 7.4.

SMILES strings stand for the structures. Converted amounts (≈) assume the structure as drawn. “And” between values parts separate entries of the source, which are not always exact repeats. Equal entries are not always repeated. Bounds are passed on as bounds.

What is called viability is the share of living cells, or the viability signal relative to a control. Low values mean a greater loss of cells, high ones better survival.

For `O=C(N[C@H](Cc1ccccc1)C(=O)Nc1ccccc1N1CCOCC1)c1cccs1` [MMV], the “MIC90 against Mabs” value in data set [1] is 6.25 µM (≈ 2.72 µg/mL). Also, the “remaining substance in murine plasma” value in [2] was 60%. Further, in [3], the “stability during incubation with human liver microsomes” value is given as “highly unstable”. Moreover, the “stability during incubation with murine liver microsomes” value in data set [4] is given as “highly unstable”. The “plasma levels after oral administration” value in [5] is given as “insufficient plasma levels”. For the same compound, the relative cell viability in data set [6] came out at 67%. The “half-life in human microsomal suspension” value in [7] (setting [11]) amounted to 1.2 min. Also, the “remaining substance in human microsomal suspension” value in data set [7] (setting [12]) came out at 2%. For the same compound, in [8] (setting [11]), the “half-life in murine microsomal suspension” value was 0.9 min. Moreover, in [8] (setting [12]), the “remaining substance in murine microsomal suspension” value is reported as 0%.
In the case of `O=C(N[C@H](Cc1ccccc1)C(=O)Nc1ccccc1N1CCS(=O)(=O)CC1)c1ccccc1F` [compound 2, (2R)-2-[(2-fluorophenyl)formamido]-N-[2-(1,1-dioxo-1λ6-thiomorpholin-4-yl)phenyl]-3-phenylpropanamide], the “MIC90 against Mabs” value in data set [1] was 0.78 µM and < 1 µM. In addition, the “MIC90 against Mtb” value in [9] was under 1 µM. The “stability during incubation with human liver microsomes” value in data set [3] was “highly unstable”. In [4], the “stability during incubation with murine liver microsomes” value is recorded as “highly unstable”. In [10], the viability at 24 h, 50 µM came out at 73%. Besides, the “stability in human microsomal suspension” value in data set [7] (human microsomal suspension) is given as “comparably low stabilities”. Moreover, the “stability in murine microsomal suspension” value in data set [8] (murine microsomal suspension) is “comparably low stabilities”.

Values taken from publication PMC10965373 (ChemMedChem, 2024).
